Experiments:
Assay type in all cases: cell-based
CDK4 [1] = target: T1, CDK4 (Homo sapiens, UniProt P11802+Q16531); assay: CDK4 percentage degradation in Calu-1 cells (Table 6); design: Cells that express cyclin D1-3 and CDK4/6 proteins were treated with heterobifunctional compounds; endogenous in cells; host or cells: Calu-1; details: 16 hours; for inhibition at 0.04 µM: 40 nM; for inhibition at 0.2 µM: 200 nM
In short: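 Calu-1 cells exposed to heterobifunctional compounds at 40 nM or 200 nM for 16 h. Cyclin D1 and CDK4 levels measured by Western blot of RIPA lysates (BCA-normalised loading), bands quantified by densitometry and expressed as percentage degradation.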
Target sequence in this assay (P11802 2-303 limits assumed): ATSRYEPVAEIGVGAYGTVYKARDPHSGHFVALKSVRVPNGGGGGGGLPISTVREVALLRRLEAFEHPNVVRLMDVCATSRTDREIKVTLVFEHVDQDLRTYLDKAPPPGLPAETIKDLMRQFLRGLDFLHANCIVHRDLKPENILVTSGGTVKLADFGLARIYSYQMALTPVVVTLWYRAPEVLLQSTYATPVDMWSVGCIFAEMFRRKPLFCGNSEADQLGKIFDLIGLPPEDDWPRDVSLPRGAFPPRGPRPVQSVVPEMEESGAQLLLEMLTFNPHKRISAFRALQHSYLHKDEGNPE
Target sequence in this assay (P24385 whole entry partner): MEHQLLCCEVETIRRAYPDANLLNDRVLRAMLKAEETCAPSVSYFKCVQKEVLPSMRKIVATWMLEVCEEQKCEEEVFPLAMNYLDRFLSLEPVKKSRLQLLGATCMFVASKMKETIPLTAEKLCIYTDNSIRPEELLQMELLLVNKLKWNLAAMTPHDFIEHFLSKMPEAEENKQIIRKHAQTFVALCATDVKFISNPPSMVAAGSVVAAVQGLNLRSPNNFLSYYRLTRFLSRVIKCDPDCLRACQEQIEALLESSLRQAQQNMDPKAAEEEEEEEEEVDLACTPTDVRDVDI
Target sequence in this assay (Q16531 2-1140 limits assumed): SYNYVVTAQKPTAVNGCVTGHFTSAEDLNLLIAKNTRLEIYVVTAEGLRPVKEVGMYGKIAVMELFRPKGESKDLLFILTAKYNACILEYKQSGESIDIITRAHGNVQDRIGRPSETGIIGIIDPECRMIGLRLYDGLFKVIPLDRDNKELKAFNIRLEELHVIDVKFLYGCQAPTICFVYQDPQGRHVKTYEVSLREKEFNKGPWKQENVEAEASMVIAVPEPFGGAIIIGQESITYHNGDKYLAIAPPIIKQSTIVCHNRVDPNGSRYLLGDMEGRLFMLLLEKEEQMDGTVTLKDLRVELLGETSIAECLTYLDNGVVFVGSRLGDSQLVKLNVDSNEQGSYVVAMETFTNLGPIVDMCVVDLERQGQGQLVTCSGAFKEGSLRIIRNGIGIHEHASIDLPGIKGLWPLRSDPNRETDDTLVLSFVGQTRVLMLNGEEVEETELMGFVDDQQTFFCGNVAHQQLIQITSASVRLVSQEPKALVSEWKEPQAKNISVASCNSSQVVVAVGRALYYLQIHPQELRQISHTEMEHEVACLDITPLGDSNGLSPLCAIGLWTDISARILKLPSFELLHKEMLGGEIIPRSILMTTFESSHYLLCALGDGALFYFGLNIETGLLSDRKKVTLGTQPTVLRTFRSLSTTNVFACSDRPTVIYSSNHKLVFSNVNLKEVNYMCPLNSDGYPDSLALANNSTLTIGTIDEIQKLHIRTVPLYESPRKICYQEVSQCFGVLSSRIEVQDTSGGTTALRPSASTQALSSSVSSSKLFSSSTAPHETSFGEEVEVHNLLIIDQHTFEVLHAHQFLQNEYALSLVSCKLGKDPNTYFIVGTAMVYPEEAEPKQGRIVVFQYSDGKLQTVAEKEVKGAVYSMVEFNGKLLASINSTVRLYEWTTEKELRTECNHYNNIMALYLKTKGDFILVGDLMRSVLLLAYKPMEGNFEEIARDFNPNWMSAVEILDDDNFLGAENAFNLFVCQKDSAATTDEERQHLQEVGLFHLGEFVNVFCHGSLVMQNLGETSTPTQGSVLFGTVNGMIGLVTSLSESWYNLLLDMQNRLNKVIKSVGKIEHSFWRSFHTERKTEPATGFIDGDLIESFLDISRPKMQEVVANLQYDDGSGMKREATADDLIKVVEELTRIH

T47D cells = assay: Anti-proliferation (viability) of ER+ breast cancer T47D cells, 6 days (Table 7, FIG. 2B); details: Homo sapiens, 144 h; T47D cells, 6 days, 10-point serial dilution; read-out: GI IC50 in T47D
Method: To evaluate anti-proliferation activities of heterobifunctional compounds, NSCLC Calu-1 or ER+ breast cancer T47D cells were treated with selected heterobifunctional compounds following a 10-point serial dilution for 3 or 6 days, respectively.
To verify that heterobifunctional compound-mediated degradation is dependent on the binding to CDK4-cyclin D complex, a negative control compound, CPD-143, which is derived from active heterobifunctional compound CPD-10 was designed. CPD-143 bears the same DDB1 ligand and linker as CPD-10 but with a modified warhead to impair the binding of the control compound to CDK4.

MCF7 cells = assay: Anti-proliferation (viability) of MCF7 cells (Table 7, FIG. 2B); details: Homo sapiens, MCF7, MCF7 cells, 3-6 days, 10-point serial dilution; read-out: GI IC50 in MCF-7
Calu-1 cells = assay: Anti-proliferation (viability) of NSCLC Calu-1 cells, 3 days (Table 7, FIG. 2B); details: Homo sapiens, 72 h; Calu-1 cells, 3 days, 10-point serial dilution; read-out: GI IC50 in Calu-1
In short: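 Treatment length differs by line: Calu-1 cells receive degrader for 3 days, T47D cells for 6 days, each over a 10-point dilution series. A warhead-modified analogue with unchanged DDB1 binder and linker served as the non-CDK4-binding control.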

CDK4 [2] = target: T1, CDK4; assay: HiBiT detection of HiBiT-tagged CDK4 protein level in MCF7 cells, 16 hours (Table 8); design: expressed in transfected cells; host or cells: MCF7; details: MCF7 cells stably expressing HiBiT tagged target proteins
Method: HiBiT detection system quantitatively measures total amounts of HiBiT-tagged proteins using a luminescent based method. MCF7 cells stably expressing HiBiT tagged target proteins were treated with heterobifunctional compounds at indicated concentrations for 16 hours, then lysed with Nano-Glo HiBiT Lytic detection reagents.
Target sequence in this assay (P11802 whole entry): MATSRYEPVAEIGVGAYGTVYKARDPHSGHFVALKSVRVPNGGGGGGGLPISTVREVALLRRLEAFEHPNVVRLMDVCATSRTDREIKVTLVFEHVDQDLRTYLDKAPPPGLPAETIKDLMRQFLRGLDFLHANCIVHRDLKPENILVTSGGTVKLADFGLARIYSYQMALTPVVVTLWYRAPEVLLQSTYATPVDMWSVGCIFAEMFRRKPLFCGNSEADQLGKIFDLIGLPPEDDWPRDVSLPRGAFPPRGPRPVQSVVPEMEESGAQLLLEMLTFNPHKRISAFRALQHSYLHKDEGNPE
Target sequence in this assay (P24385 whole entry partner): as the sequence (P24385 whole entry partner) above
Target sequence in this assay (Q16531 2-1140 limits assumed): as the sequence (Q16531 2-1140 limits assumed) above

inhibition at 0.04 µM (CDK4 [1]) [%]	inhibition at 0.2 µM (CDK4 [1]) [%]	IC50 (T47D cells) [nM]	IC50 (MCF7 cells) [nM]	IC50 (Calu-1 cells) [nM]	activity at 0.01 µM (CDK4 [2]; 10 nM, read-out: % CDK4 Relative Level (10 nM)) [%]	activity at 0.1 µM (CDK4 [2]; 100 nM, read-out: % CDK4 Relative Level (100 nM)) [%]	SMILES
< 30	50 to 80	50 to 100		≤ 10			CC(=O)c1c(C)c2cnc(Nc3ccc(N4CCN(CC(=O)NCCCCCNc5nc(NC(C)(C)C)ccc5C(=O)Nc5ccc(N(C)C)nn5)CC4)cn3)nc2n(C2CCCC2)c1=O [CPD-85, 2-((5-(2-(4-(6-((6-Acetyl-8-cyclopentyl-5-methyl-7-oxo-7,8-dihydropyrido[2,3-d]pyrimidin-2-yl)amino)pyridin-3-yl)piperazin-1-yl)acetamido)pentyl)amino)-6-(tert-butylamino)-N-(6-(dimethylamino)pyridazin-3-yl)nicotinamide]
50 to 80	> 80	50 to 100		10 to 50			CNc1ccc(C(=O)Nc2ccc(N(C)C)nn2)c(NC(C)CCCCNC(=O)CN2CCN(c3ccc(Nc4ncc5c(C)c(C(C)=O)c(=O)n(C6CCCC6)c5n4)nc3)CC2)n1 (stereo not shown) [CPD-29, 2-((6-(2-(4-(6-((6-Acetyl-8-cyclopentyl-5-methyl-7-oxo-7,8-dihydropyrido[2,3-d]pyrimidin-2-yl)amino)pyridin-3-yl)piperazin-1-yl)acetamido)hexan-2-yl)amino)-N-(6-(dimethylamino)pyridazin-3-yl)-6-(methylamino)nicotinamide]
50 to 80	50 to 80	≥ 100		10 to 50			CNc1ccc(C(=O)Nc2ccc(N(C)C)nn2)c(NCCCCNC(=O)CCN2CCN(c3ccc(Nc4ncc5c(C)c(C(C)=O)c(=O)n(C6CCCC6)c5n4)nc3)CC2)n1 [CPD-37, 2-((4-(3-(4-(6-((6-acetyl-8-cyclopentyl-5-methyl-7-oxo-7,8-dihydropyrido[2,3-d]pyrimidin-2-yl)amino)pyridin-3-yl)piperazin-1-yl)propanamido)butyl)amino)-N-(6-(dimethylamino)pyridazin-3-yl)-6-(methylamino)nicotinamide]
50 to 80	50 to 80	≤ 50		10 to 50			CC(=O)c1c(C)c2cnc(Nc3ccc(N4CCN(CC(=O)NCCCCCNc5nc(C#N)ccc5C(=O)Nc5ccc(N(C)C)nn5)CC4)cn3)nc2n(C2CCCC2)c1=O [CPD-28, 2-((5-(2-(4-(6-((6-Acetyl-8-cyclopentyl-5-methyl-7-oxo-7,8-dihydropyrido[2,3-d]pyrimidin-2-yl)amino)pyridin-3-yl)piperazin-1-yl)acetamido)pentyl)amino)-6-cyano-N-(6-(dimethylamino)pyridazin-3-yl)nicotinamide]
50 to 80	50 to 80	≤ 50		≤ 10			CNc1ccc(C(=O)Nc2ccc(N(C)C)nn2)c(NC2CC(CNC(=O)CCN3CCN(c4ccc(Nc5ncc6c(C)c(C(C)=O)c(=O)n(C7CCCC7)c6n5)nc4)CC3)C2)n1 (stereo not shown) [CPD-80, 2-((3-((3-(4-(6-((6-Acetyl-8-cyclopentyl-5-methyl-7-oxo-7,8-dihydropyrido[2,3-d]pyrimidin-2-yl)amino)pyridin-3-yl)piperazin-1-yl)propanamido)methyl)cyclobutyl)amino)-N-(6-(dimethylamino)pyridazin-3-yl)-6-(methylamino)nicotinamide]

Second part, the compound before the results:

SMILES	inhibition at 0.04 µM (CDK4 [1]) [%]	inhibition at 0.2 µM (CDK4 [1]) [%]	IC50 (T47D cells) [nM]	IC50 (MCF7 cells) [nM]	IC50 (Calu-1 cells) [nM]	activity at 0.01 µM (CDK4 [2]; 10 nM, read-out: % CDK4 Relative Level (10 nM)) [%]	activity at 0.1 µM (CDK4 [2]; 100 nM, read-out: % CDK4 Relative Level (100 nM)) [%]
CNc1ccc(C(=O)Nc2cc(C)n(C)n2)c(NC2CC3(C2)CN(C(=O)CCN2CCN(c4ccc(Nc5ncc6c(C)c(C(C)=O)c(=O)n(C7CCCC7)c6n5)nc4)CC2)C3)n1 [CPD-129, 2-((2-(3-(4-(6-((6-Acetyl-8-cyclopentyl-5-methyl-7-oxo-7,8-dihydropyrido[2,3-d]pyrimidin-2-yl)amino)pyridin-3-yl)piperazin-1-yl)propanoyl)-2-azaspiro[3.3]heptan-6-yl)amino)-N-(1,5-dimethyl-1H-pyrazol-3-yl)-6-(methylamino)nicotinamide]	50 to 80	50 to 80	50 to 100	> 100	≤ 10		
CNc1ccc(C(=O)Nc2ccc(N(C)C)nn2)c(NC2CC3(CC(CNC(=O)N4CCN(c5ccc(Nc6ncc7c(C)c(C(C)=O)c(=O)n(C8CCCC8)c7n6)nc5)CC4)C3)C2)n1 (stereo not shown) [CPD-81, 4-(6-((6-Acetyl-8-cyclopentyl-5-methyl-7-oxo-7,8-dihydropyrido[2,3-d]pyrimidin-2-yl)amino)pyridin-3-yl)-N-((6-((3-((6-(dimethylamino)pyridazin-3-yl)carbamoyl)-6-(methylamino)pyridin-2-yl)amino)spiro[3.3]heptan-2-yl)methyl)piperazine-1-carboxamide]	30 to 50	30 to 50	50 to 100		10 to 50		
CNc1ccc(C(=O)Nc2cccc(C)n2)c(NC2CC3(CC(NC(=O)CN4CCN(c5ccc(Nc6ncc7c(C)c(C(C)=O)c(=O)n(C8CCCC8)c7n6)nc5)CC4)C3)C2)n1 (stereo not shown) [CPD-75, 2-((6-(2-(4-(6-((6-Acetyl-8-cyclopentyl-5-methyl-7-oxo-7,8-dihydropyrido[2,3-d]pyrimidin-2-yl)amino)pyridin-3-yl)piperazin-1-yl)acetamido)spiro[3.3]heptan-2-yl)amino)-6-(methylamino)-N-(6-methylpyridin-2-yl)nicotinamide]	30 to 50	50 to 80	≤ 50		10 to 50		
CNc1ccc(C(=O)Nc2ccc(C)c(C3CC3)n2)c(NC2CC3(CC(NC(=O)CN4CCN(c5ccc(Nc6ncc7c(C)c(C(C)=O)c(=O)n(C8CCCC8)c7n6)nc5)CC4)C3)C2)n1 (stereo not shown) [CPD-57, 2-((6-(2-(4-(6-((6-Acetyl-8-cyclopentyl-5-methyl-7-oxo-7,8-dihydropyrido[2,3-d]pyrimidin-2-yl)amino)pyridin-3-yl)piperazin-1-yl)acetamido)spiro[3.3]heptan-2-yl)amino)-N-(6-cyclopropyl-5-methylpyridin-2-yl)-6-(methylamino)nicotinamide]	30 to 50	> 80	50 to 100		10 to 50		
CC(=O)c1c(C)c2cnc(Nc3ccc(N4CCN(CC(=O)NC5CC6(C5)CC(Nc5nc(NC(C)C)ccc5C(=O)Nc5cccc(C7CC7)n5)C6)CC4)cn3)nc2n(C2CCCC2)c1=O (stereo not shown) [CPD-139, 2-((6-(2-(4-(6-((6-Acetyl-8-cyclopentyl-5-methyl-7-oxo-7,8-dihydropyrido[2,3-d]pyrimidin-2-yl)amino)pyridin-3-yl)piperazin-1-yl)acetamido)spiro[3.3]heptan-2-yl)amino)-N-(6-cyclopropylpyridin-2-yl)-6-(isopropylamino)nicotinamide]	50 to 80	50 to 80	≤ 50		≤ 10		
CC(=O)c1c(C)c2cnc(Nc3ccc(N4CCN(CC(=O)NC5CC6(C5)CC(Nc5nc(NC(C)C)ccc5C(=O)Nc5cc(C)n(C)n5)C6)CC4)cn3)nc2n(C2CCCC2)c1=O (stereo not shown) [CPD-253, 2-((6-(2-(4-(6-((6-acetyl-8-cyclopentyl-5-methyl-7-oxo-7,8-dihydropyrido[2,3-d]pyrimidin-2-yl)amino)pyridin-3-yl)piperazin-1-yl)acetamido)spiro[3.3]heptan-2-yl)amino)-N-(1,5-dimethyl-1H-pyrazol-3-yl)-6-(isopropylamino)nicotinamide]	< 30	< 30	≥ 100	< 50		> 85	55 to 85
CNc1ccc(C(=O)Nc2ccc(N(C)C)nn2)c(NC2CC(CCNC(=O)N3CCN(c4ccc(Nc5ncc6c(C)c(C(C)=O)c(=O)n(C7CCCC7)c6n5)nc4)CC3)C2)n1 (stereo not shown) [CPD-35, 4-(6-((6-Acetyl-8-cyclopentyl-5-methyl-7-oxo-7,8-dihydropyrido[2,3-d]pyrimidin-2-yl)amino)pyridin-3-yl)-N-(2-(3-((3-((6-(dimethylamino)pyridazin-3-yl)carbamoyl)-6-(methylamino)pyridin-2-yl)amino)cyclobutyl)ethyl)piperazine-1-carboxamide]	50 to 80	50 to 80	50 to 100		10 to 50		
CNc1ccc(C(=O)Nc2ccc(N(C)C)nn2)c(NC2CCN(C(=O)CCN3CCN(c4ccc(Nc5ncc6c(C)c(C(C)=O)c(=O)n(C7CCCC7)c6n5)nc4)CC3)C2)n1 (stereo not shown) [CPD-218, 2-((1-(3-(4-(6-((6-acetyl-8-cyclopentyl-5-methyl-7-oxo-7,8-dihydropyrido[2,3-d]pyrimidin-2-yl)amino)pyridin-3-yl)piperazin-1-yl)propanoyl)pyrrolidin-3-yl)amino)-N-(6-(dimethylamino)pyridazin-3-yl)-6-(methylamino)nicotinamide]	50 to 80	50 to 80	50 to 100	50 to 100			

From patent US20260297081A1, “COMPOUNDS AND METHODS OF TREATING CANCERS” (Cullgen Inc., priority 2023, published 2026)
